The values below are quoted from earlier work in US20090068143A1, “ORALLY EFFECTIVE C[…]” (priority 2005, published 2009).

For series [1] the following is noted: oral administration, on an average; cited from earlier work.
For series [2] the following is noted: in vivo; cited from earlier work.

With `CCCCCc1cc(O)c2c(c1)OC(C)(C)[C@@H]1CCC(C)=C[C@@H]21` [Δ^9-THC, Δ^9-tetrahydrocannabinol], the absolute bioavailability in series [1] was 13%.

B1: IFN-β-1b: beta interferon product to which patients develop NAbs (protein, UniProt P01574 22-187, looked up, variant C17S)
Interferon beta: MSYNLLGFLQRSSNFQSQKLLWQLNGRLEYCLKDRMNFDIPEEIKQLQQFQKEDAALTIYEMLQNIFAIFRQDSSSTGWNETIVENLLANVYHQINHLKTVLEEKLEKEDFTRGKLMSSLHLKRYYGRILHYLKAKEYSHCAWTIVRVEILRNFYFINRLTGYLRN
In the case of B1, the “patients developing neutralizing antibodies (NAbs)” value in series [2] is on record as “Twenty-eight to forty-seven”.
